Reference: BindingDB's records for doi:10.7270/Q21R6NZ6 (Emory University, 2008)

Molecular target: Mothers against decapentaplegic homolog 3 (Homo sapiens, UniProt P84022)
Test: Smad3 binding inhibitors, lysate ELISA, dose response, cell lysate, secondary confirmation, chemiluminescent ELISA, HEK293 lysate (AID 1058)

Mothers against decapentaplegic homolog 3, sequence (P84022 whole entry): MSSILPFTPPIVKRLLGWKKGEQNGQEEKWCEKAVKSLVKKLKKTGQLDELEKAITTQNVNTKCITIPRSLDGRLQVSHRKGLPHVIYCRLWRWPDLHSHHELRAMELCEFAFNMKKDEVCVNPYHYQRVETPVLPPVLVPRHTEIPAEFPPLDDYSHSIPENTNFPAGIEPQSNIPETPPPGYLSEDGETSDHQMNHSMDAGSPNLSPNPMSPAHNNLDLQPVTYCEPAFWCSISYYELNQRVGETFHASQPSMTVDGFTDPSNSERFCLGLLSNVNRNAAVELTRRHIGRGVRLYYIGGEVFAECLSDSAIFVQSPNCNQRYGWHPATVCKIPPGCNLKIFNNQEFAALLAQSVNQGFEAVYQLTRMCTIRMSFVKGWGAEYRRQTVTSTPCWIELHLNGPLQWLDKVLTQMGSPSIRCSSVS

`COC(=O)c1ccccc1C1c2ccc(O)c(O)c2OC2C(=O)C(=O)C=CC21` (stereo unspecified) [2-(3,4,5-trihydroxy-6-keto-8a,9-dihydroxanthen-9-yl)benzoic acid methyl ester] gave an IC50 greater than 50 µM.
